Experimental data as given in patent US20110065760A1, “COMPOUNDS FOR THE INHIBITION OF ROTAMASES AND USE THEREOF” (Jerini AG, priority 2002, published 2011).
Where two headings read alike, the source gives them in different places.

What was measured:
EcParvulin = EcParvulin (Escherichia coli, UniProt P0A9L5); experiment: protease-coupled PPIase assay, EcParvulin; assay type: biochemical
LpCyp18 = LpCyp18 (Legionella pneumophila, UniProt Q5ZRZ4); experiment: biochemical; details: IC50 class, Target T-4 (LpCyp18)
Chain of LpCyp18 (Q5ZRZ4 1-164): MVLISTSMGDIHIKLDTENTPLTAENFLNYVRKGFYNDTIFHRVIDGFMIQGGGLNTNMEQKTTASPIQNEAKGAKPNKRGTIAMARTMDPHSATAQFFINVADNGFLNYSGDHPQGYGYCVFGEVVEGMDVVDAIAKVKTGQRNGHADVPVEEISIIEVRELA

hCyp18 = hCyp18 (Homo sapiens, UniProt P62937); experiment: protease-coupled PPIase assay, hCyp18; assay type: biochemical; details: 10 nM hCyp18, substrate Suc-Ala-Phe-Pro-Phe-pNA, chymotrypsin, pH 7.8, 6° C.; read-out: IC50 class, Target T-3 (hCyp18)
Chain of hCyp18 (P62937 whole entry): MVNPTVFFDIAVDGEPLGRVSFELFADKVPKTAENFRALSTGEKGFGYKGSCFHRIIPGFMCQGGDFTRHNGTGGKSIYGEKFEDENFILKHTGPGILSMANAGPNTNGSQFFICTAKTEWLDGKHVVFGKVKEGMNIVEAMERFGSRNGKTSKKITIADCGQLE

hPin1 = hPin1 (Homo sapiens, UniProt Q13526); experiment: protease-coupled PPIase assay, hPin1; assay type: biochemical; details: 6 nM hPin1, substrate Ac-Ala-Ala-Ser(PO3H2)-Pro-Arg-pNA, trypsin, pH 7.8, 6° C.; read-out: IC50 class, Target T-1 (hPin1)
Chain of hPin1 (Q13526 whole entry): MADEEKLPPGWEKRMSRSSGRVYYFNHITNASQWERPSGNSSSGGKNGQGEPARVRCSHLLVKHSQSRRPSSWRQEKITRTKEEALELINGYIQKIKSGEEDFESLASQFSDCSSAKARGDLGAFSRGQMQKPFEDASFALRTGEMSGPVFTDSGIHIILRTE

Papain = molecular target: T1, Papain (Carica papaya, UniProt P00784); experiment: papain assay; assay type: biochemical; details: 16 μg/ml papain, 2 mM Bz-DL-Arg-pNA, pH 6.5, 30° C., 30 min incubation; read-out: IC50 class, Target T-6 (Papain)
T1 sequence (P00784 134-345): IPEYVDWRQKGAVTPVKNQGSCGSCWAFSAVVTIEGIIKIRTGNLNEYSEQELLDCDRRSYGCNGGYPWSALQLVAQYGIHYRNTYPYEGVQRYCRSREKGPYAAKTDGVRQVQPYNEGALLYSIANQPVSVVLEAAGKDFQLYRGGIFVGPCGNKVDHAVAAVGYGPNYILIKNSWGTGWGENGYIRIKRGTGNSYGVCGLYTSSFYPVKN
Description: In order to investigate the impact of some of the inventive compounds on the activity of key proteases the following assay was performed: Protease activities were measured spectrophotometrically at 30° C. according to Schomburg and Salzmann (Schomburg, B.; Salzmann M. GBF: Enzyme Handbook. Springer Verlag, Berlin Heidelberg, 1991) and Bergmeyer et al. (Bergmeyer, H. U.; Bergmeyer, J.; Graβl, M. Methods of Enzymatic Analysis, Vol. V Enzymes 3: Peptides, Proteinases and Their Inhibitors. pp 55-371, VCH, Weinheim, 1988). The release of 4-nitroaniline was determined at 390 nm with a Spectramax Plus UV/Vis spectrophotometer (Molecular Devices). The cathepsin B assay was performed in a reaction mixture containing 0.2 μg/ml cathepsin B, 2 mM Z-Arg-Arg-pNA in 88 mM KH2PO4, 12 mM Na2HPO4, 1.33 mM EDTA, 0.03% Brij 35 (pH 5.8). The trypsin assay was carried out in a reaction mixture containing 0.1 μg/ml trypsin and 120 μM Ac-Ala-Ala-Ser(PO3H2)-Pro-Arg-pNA in 35 mM HEPES (pH 7.8) and the papain assay in a mixture consisting of 16 μg/ml papain and 2 mM Bz-DL-Arg-pNA in 10 mM Na2HPO4, 2 mM L-Cys, 5 mM EDTA (pH 6.5). In general, reactions were started by addition of peptide substrate after a 30 min incubation of 1-100 μM effector with given concentrations of enzyme.

hFKBP12 = hFKBP12 (Homo sapiens, UniProt P62942); experiment: protease-coupled PPIase assay, hFKBP12; assay type: biochemical; details: 20 nM hFKBP12, substrate Suc-Ala-Phe-Pro-Phe-pNA, chymotrypsin, pH 7.8, 6° C.; read-out: IC50 class, Target T-2 (hFKBP12)
Chain of hFKBP12 (P62942 whole entry): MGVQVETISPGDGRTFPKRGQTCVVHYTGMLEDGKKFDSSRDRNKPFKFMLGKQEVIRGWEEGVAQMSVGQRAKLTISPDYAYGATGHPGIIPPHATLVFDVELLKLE

[1] = WST-1 cytotoxicity assay, HL-60; assay type: cell-based; details: human, HL-60 cells (acute myeloid leukemia); WST-1, 48 h incubation; read-out: EC50 class, cytotoxic effect, CL-1 (HL-60)
Description: For this cytotoxic evaluation of the compounds the commercial available WST-1 assay (Roche) was used according to the manufacturer's instructions. The assay is based on the cleavage of the tetrazolium salt WST-1 by mitochondrial dehydrogenases found in viable cells. In general compounds were added to cells cultured in 96-well plates at 37° C. After 48 h of incubation 10 μl of WST-1 solution was added. The formazan dye was analyzed with an ELISA plate reader at (450 vs. 620) nm. CL-1: human acute myeloid leukemia, HL-60 CL-2: human cervix carcinoma, HeLa CL-3: human prostate carcinoma, PC-3 CL-4: human colon adenocarcinoma, Caco-2 CL-5: human breast adenocarcinoma, MCF-7

[2] = 20 nM EcParvulin, substrate Suc-Ala-Phe-Pro-Phe-pNA, chymotrypsin, pH 7.8, 6° C., read-out: IC50 class, Target T-5 (EcParv)

Chain of EcParvulin (P0A9L5 whole entry): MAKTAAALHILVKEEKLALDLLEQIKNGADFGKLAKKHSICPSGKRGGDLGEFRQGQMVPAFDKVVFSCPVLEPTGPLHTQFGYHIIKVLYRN

Row | Structure (SMILES) | IC50 (EcParvulin) [µM] | IC50 (LpCyp18) [µM] | IC50 (hCyp18) [µM] | IC50 (hPin1) [µM] | IC50 (Papain) [µM] | IC50 (hFKBP12) [µM] | IC50 (EcParvulin; [2]) [µM] | EC50 at 48 h [1] [µM]
1 | Cc1cccc(C)c1NC(=O)Nc1cc(Cl)c(O)c(Cl)c1 [Compound 716] | 10 to 50 | > 100 | > 100 | 1 to 10 | > 100 | > 100 | – | –
2 | Oc1c(Cl)cc(-c2nc3ccccc3s2)cc1NC(=S)NCc1ccccc1 [Compound 637] | – | – | – | 1 to 10 | – | – | – | –
3 | CC(C)(C)CC(C)(C)NC(=O)Nc1cc(Br)cc(F)c1O [Compound 126] | – | – | – | < 1 | – | – | – | –
4 | CC(C)(C)NC(=O)Nc1cc(Cl)cc(Cl)c1O [Compound 31] | – | – | – | < 1 | – | – | – | –
5 | O=C(NCCc1ccccc1)Nc1cc(Cl)c(O)c(NCc2ccccc2Sc2ccc(Cl)cc2)c1 [Compound 610] | – | – | – | < 1 | – | – | – | –
6 | CCc1c(Cl)cc(NCc2ccccc2Sc2ccc(Cl)cc2)c(O)c1Cl [Compound 441] | > 100 | > 100 | 10 to 50 | 1 to 10 | > 100 | > 100 | – | –
7 | Cc1c(Cl)cc(NCc2cccc(Oc3ccc(C(C)(C)C)cc3)c2)c(O)c1Cl [Compound 499] | – | – | – | – | > 100 | – | – | –
8 | CC(C)(C)NC(=O)Nc1cc(NC(=O)NCCc2ccccc2)cc(Cl)c1O [Compound 622] | – | – | – | < 1 | – | – | – | –
9 | O=C(Nc1cc(Cl)c(O)c(Cl)c1)c1ccc2ccccc2c1 [Compound 1297] | – | > 100 | > 100 | < 1 | – | > 100 | 10 to 50 | 50 to 100
10 | O=C(NCc1ccccc1)Nc1cc(Cl)c(O)c(Cl)c1 [Compound 700] | – | > 100 | > 100 | < 1 | – | > 100 | 10 to 50 | –
11 | O=C(Cc1ccc2c(c1)OCO2)Nc1cc(Cl)c(O)c(Cl)c1 [Compound 1295] | – | > 100 | > 100 | 1 to 10 | – | > 100 | 1 to 10 | –
12 | O=C(Cc1ccccc1[N+](=O)[O-])Nc1cc(Cl)c(O)c(Cl)c1 [Compound 1294] | – | > 100 | > 100 | < 1 | – | > 100 | 1 to 10 | –
13 | CCCCCCCCS(=O)(=O)Nc1cc(Cl)c(C)c(Cl)c1O [Compound 563] | > 100 | > 100 | > 100 | 1 to 10 | > 100 | > 100 | – | –
14 | Cc1c(Cl)cc(NC(=O)NCCc2nc3ccccc3[nH]2)c(O)c1Cl [Compound 656] | – | – | – | < 1 | – | – | – | –
15 | CCOC(=O)C(Cc1ccccc1)NC(=O)Nc1cc(Cl)c(C)c(Cl)c1O (centres unmarked) [Compound 593] | – | – | – | 1 to 10 | – | – | – | –
16 | Cc1c(Cl)cc(NCc2cccc(Oc3ccc(Cl)cc3)c2)c(O)c1Cl [Compound 498] | – | – | – | – | > 100 | – | – | –
17 | Oc1ccc(NCc2ccccc2Sc2ccc(Cl)cc2)c(O)c1 [Compound 672] | – | 10 to 50 | 1 to 10 | – | – | – | – | –
18 | Oc1c(Cl)cccc1NCc1ccccc1Sc1ccc(Cl)cc1 [Compound 343] | > 100 | > 100 | 10 to 50 | 1 to 10 | > 100 | > 100 | – | –
19 | Oc1c(F)cc(Br)cc1NCc1ccccc1Sc1ccc(Cl)cc1 [Compound 385] | – | – | – | – | > 100 | – | – | –
20 | O=C(Nc1cc(Cl)c(O)c(Cl)c1)c1ccco1 [Compound 1299] | – | > 100 | < 1 | < 1 | – | > 100 | 10 to 50 | –
21 | O=C(Nc1cc(Cl)c(O)c(Cl)c1)NC1CCCCC1 [Compound 710] | > 100 | > 100 | > 100 | < 1 | > 100 | > 100 | – | –
